The source of these data is patent publication US7473709B2, “11β-benzaldoxime derivatives of D-homooestra-4,9-dien-3-ones” (Bayer Schering Pharma AG, priority 2005, dated 2009).

The target of assay [1] is T1, Progesterone receptor (PR) (Oryctolagus cuniculus, UniProt P06186).
T1 construct: receptors in the cytosol from animal target organs; from tissue; host or cells: uterus cytosol of oestradiol-primed rabbit
T1 sequence (P06186 1-930): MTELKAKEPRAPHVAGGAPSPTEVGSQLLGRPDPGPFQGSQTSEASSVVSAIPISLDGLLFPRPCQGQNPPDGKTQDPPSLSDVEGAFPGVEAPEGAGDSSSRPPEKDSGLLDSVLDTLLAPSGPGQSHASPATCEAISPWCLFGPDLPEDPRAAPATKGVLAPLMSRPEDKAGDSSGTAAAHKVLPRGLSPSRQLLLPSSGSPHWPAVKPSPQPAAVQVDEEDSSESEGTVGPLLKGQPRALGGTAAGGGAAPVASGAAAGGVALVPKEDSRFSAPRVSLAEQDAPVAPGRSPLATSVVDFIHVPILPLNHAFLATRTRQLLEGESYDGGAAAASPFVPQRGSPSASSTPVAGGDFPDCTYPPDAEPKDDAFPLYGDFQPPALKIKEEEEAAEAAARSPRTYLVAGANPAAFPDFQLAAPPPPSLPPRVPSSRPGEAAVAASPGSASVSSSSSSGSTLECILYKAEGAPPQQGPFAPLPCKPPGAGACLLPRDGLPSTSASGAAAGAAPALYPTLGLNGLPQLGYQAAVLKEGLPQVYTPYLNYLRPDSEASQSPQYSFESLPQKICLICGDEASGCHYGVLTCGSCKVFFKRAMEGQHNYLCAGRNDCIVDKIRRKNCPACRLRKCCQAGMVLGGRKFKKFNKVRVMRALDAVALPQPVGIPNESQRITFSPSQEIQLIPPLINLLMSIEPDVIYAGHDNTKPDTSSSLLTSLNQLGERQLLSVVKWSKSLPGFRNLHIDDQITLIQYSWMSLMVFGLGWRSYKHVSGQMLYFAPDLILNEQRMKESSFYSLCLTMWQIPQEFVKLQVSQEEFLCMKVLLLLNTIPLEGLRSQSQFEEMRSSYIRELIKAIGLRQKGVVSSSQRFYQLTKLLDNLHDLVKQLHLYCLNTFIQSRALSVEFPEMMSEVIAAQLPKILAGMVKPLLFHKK
Description: Receptor binding affinity, progesterone receptor (competitive binding with 3H-ORG 2058). To be noted: uterus cytosol of oestradiol-primed rabbit; tracer 3H-ORG 2058 5 nM; reference progesterone = 100%. The method, then:
(§1) The receptor binding affinity was determined by the competitive binding of a specifically binding ^3H-labelled hormone (tracer) and the test compound to receptors in the cytosol from animal target organs, with the aim of achieving receptor saturation and reaction equilibrium.
(§2) The tracer and increasing concentrations of the test compound (competitor) were coincubated with the receptor-containing cytosol fraction at 0-4° C. for 18 h. After separation of the unbound tracer with a carbon/dextran suspension, the proportion of receptor-bound tracer was measured for each concentration and the IC50 was determined from the concentration series.
(§3) The following incubation conditions were chosen for the individual receptor types:
Uterus cytosol of the oestradiol-primed rabbit, homogenized in TED buffer (20 mM Tris/HCI, pH 7.4; 1 mM ethylenediaminetetraacetate, 2 mM dithiothreitol) containing 250 mM sucrose; kept at −30° C.

For assay [2], the target named is T2, Glucocorticoid receptor (GR) (Rattus norvegicus, UniProt P06536).
T2 construct: receptors in the cytosol from animal target organs; from tissue; host or cells: thymus cytosol of adrenalectomized rat
T2 sequence (P06536 1-795): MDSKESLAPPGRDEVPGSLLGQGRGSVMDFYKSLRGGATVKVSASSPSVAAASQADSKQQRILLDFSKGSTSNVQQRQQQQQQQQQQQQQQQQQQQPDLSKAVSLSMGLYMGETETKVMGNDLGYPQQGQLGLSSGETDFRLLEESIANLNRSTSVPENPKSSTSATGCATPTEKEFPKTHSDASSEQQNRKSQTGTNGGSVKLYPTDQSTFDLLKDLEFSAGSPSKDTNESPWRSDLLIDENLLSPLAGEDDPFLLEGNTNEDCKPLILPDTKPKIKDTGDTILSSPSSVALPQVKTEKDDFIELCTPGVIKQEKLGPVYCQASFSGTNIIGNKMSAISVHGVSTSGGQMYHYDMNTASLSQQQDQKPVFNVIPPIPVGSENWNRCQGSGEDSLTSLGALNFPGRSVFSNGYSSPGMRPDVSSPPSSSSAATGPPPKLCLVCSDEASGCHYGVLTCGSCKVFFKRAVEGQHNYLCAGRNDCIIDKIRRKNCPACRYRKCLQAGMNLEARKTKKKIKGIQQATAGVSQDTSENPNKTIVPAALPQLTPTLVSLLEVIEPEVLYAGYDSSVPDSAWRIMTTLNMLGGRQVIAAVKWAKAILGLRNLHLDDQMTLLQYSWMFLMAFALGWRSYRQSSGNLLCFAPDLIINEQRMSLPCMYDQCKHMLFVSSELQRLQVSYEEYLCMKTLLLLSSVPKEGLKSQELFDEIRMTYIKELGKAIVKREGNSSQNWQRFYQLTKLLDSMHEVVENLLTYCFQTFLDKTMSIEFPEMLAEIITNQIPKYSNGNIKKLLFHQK
Description: Receptor binding affinity, glucocorticoid receptor (competitive binding with 3H-dexamethasone). To be noted: for Glucocorticoid receptor (GR) dexamethasone = 100% (relative molar binding affinity, RBA): thymus cytosol of adrenalectomized rat, tracer 3H-dexamethasone 20 nM, reference dexamethasone = 100%. How it is done: as §1, §2, §3
Thymus cytosol of the adrenalectomized rat, thymi stored at −30° C.; buffer: TED. Tracer: ^3H-dexamethasone, 20 nM; reference substance: dexamethasone.

Regarding “4-[17aβ-Methoxy-17aα-(methoxymethyl)-17a-homo-3-oxooestra-4,9-dien-11β-yl]benzaldehyde (1E)-[O-(ethylamino)carbonyl]oxime [Example 6]”, in assay [1], the “Progesterone receptor (PR) progesterone = 100% (relative molar binding affinity, RBA)” value turned out to be 158%. In assay [2] (ratio of RBA at GR to RBA at PR), the “Ratio GR/PR” value was 2.8. In addition, the “Glucocorticoid receptor (GR) dexamethasone = 100% (relative molar binding affinity, RBA)” value in assay [2] amounted to 450%.
In the case of `CC#C[C@]1(O)CC[C@H]2[C@@H]3CCC4=CC(=O)CCC4=C3[C@@H](c3ccc(N(C)C)cc3)C[C@@]21C` [RU 38486, mifepristone], in assay [2], the “Glucocorticoid receptor (GR) dexamethasone = 100% (relative molar binding affinity, RBA)” value stood at 683%.
